# Values joined by “and” are separate entries in the source; they are usually repeats but may differ in a detail not shown here. Identical values can stand only once.
# Target: T1, Sodium/glucose cotransporter 2 (Homo sapiens, UniProt P31639)
# T1 sequence (P31639 whole entry): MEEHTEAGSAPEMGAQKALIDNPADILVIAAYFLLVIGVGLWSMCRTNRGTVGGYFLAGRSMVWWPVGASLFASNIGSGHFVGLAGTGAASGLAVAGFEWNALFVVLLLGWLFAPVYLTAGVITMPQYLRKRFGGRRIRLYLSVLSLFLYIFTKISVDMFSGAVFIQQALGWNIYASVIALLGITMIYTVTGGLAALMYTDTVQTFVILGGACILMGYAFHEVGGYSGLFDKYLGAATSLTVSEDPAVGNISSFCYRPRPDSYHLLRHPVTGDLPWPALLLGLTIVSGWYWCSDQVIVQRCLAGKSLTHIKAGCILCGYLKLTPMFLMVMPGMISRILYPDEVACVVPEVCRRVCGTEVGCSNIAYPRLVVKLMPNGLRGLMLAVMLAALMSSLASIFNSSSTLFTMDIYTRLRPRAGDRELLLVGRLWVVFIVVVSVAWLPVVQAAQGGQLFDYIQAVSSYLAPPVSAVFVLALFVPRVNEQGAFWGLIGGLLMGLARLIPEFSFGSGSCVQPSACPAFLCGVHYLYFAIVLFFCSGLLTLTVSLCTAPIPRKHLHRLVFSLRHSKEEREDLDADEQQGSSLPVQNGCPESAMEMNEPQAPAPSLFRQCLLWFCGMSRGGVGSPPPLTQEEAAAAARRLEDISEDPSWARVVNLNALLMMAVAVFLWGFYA
# Test: Biological Assays: The SGLT2 functional assay was designed to detect the inhibition of methyl-alpha-D glucopyranoside (AMG a non-metabolizable form of glucose) uptake via the SGLT2 transporter. The SGLT2 transporter recovers glucose from the proximal tubules of the kidney; its inhibition results in sugar wasted in the urine. The positive control compound, Phlorizin, is a known inhibitor of glucose uptake for SGLT2 and was used for comparing the high percent effect of SGLT2 inhibition of the test compounds.
structure (smiles),measurement,value
CCOc1ccc(Cc2cc([C@]34OC[C@](COC(C)=O)(O3)[C@@H](O)[C@H](O)[C@H]4O)ccc2Cl)cc1,IC50,5 nM and 6.7 nM

# From ChEMBL document CHEMBL3639107, “Dioxa-bicyclo[3.2.1]octane-2,3,4-triol derivatives” (2014)
